In ChEMBL document CHEMBL1130589, “Synthesis and evaluation of a novel series of phosphodiesterase IV inhibitors. A potential treatment for asthma” (Bioorg Med Chem Lett, 1998):

Columns and labels:
Assay type in all cases: protein assay
Phosphodiesterase 4 [1] = biological target: T1, Phosphodiesterase 4 (Homo sapiens, UniProt P27815+Q08499+Q07343+Q08493); experiment: Relative inhibition of phosphodiesterase 4 activity and Rolipram binding to PDE4
Phosphodiesterase 4 [2] = biological target: T1, Phosphodiesterase 4; experiment: Inhibition of phosphodiesterase 4
Phosphodiesterase 4 [3] = biological target: T1, Phosphodiesterase 4; experiment: Inhibition of Rolipram binding to PDE4 at 100 uM
Phosphodiesterase 4 [4] = biological target: T1, Phosphodiesterase 4; experiment: Inhibition of Rolipram binding to PDE4 at 10 uM
Phosphodiesterase 4 [5] = biological target: T1, Phosphodiesterase 4; experiment: (§1) Inhibition of Rolipram binding to PDE4 at 1 uM
Phosphodiesterase 4 [6] = biological target: T1, Phosphodiesterase 4; experiment: Inhibition of Rolipram binding to PDE4
Phosphodiesterase 4 [7] = biological target: T1, Phosphodiesterase 4; experiment: as §1; remark: listed apart in the source

Row | SMILES | Ratio (Phosphodiesterase 4 [1]) | IC50 (Phosphodiesterase 4 [2]) [nM] | inhibition (Phosphodiesterase 4 [3]) [%] | inhibition (Phosphodiesterase 4 [4]) [%] | inhibition (Phosphodiesterase 4 [5]) [%] | IC50 (Phosphodiesterase 4 [7]) [nM] | IC50 (Phosphodiesterase 4 [6]) [nM]
1 | CCn1cc(C(=O)N(C)CCc2ccccc2)c(=O)c2cc(C(F)(F)F)ccc21 | < 0.49 | 49000 | 15 |  |  |  | 
2 | CC1CCc2cc(F)cc3c(=O)c(C(=O)NCCc4ccncc4)cn1c23 (configuration not stated) | < 0.7 | 7000 |  | 8 |  |  | 
3 | CCn1cc(C(=O)NCCc2ccncc2)c(=O)c2cc(C(F)(F)F)ccc21 | < 0.15 | 1500 |  | 24 |  |  | 
4 | CCCn1cc(C(=O)NCCc2ccncc2)c(=O)c2cc(C(F)(F)F)ccc21.Cl | 0.17 | 1700 |  |  |  |  | 10000
5 | CCn1cc(C(=O)N/N=C/c2ccccc2Cl)c(=O)c2cc(C(F)(F)F)ccc21 |  | 1100 |  |  |  | 10000 | 
6 | CCn1cc(C(=O)NCCc2ccccc2)c(=O)c2cc(C(F)(F)F)ccc21 | < 0.6 | 600 |  |  | 8 |  | 
7 | CCn1cc(C(=O)NC2CCc3cc(OC)c(OC)cc32)c(=O)c2cc(C(F)(F)F)ccc21 (configuration not stated) | < 0.9 | 900 |  |  | 22 |  | 
8 | CCn1cc(C(=O)NC2CCc3cc(NC(C)=O)ccc32)c(=O)c2cnc(N3CCCC3)nc21 (configuration not stated) | < 1 | 1800 |  |  | 17 |  | 

Now from value to compound, other results behind:

Row | Ratio (Phosphodiesterase 4 [1]) | IC50 (Phosphodiesterase 4 [2]) [nM] | inhibition (Phosphodiesterase 4 [3]) [%] | inhibition (Phosphodiesterase 4 [4]) [%] | inhibition (Phosphodiesterase 4 [5]) [%] | IC50 (Phosphodiesterase 4 [7]) [nM] | SMILES | IC50 (Phosphodiesterase 4 [6]) [nM]
9 | 1 | 23000 |  | 31 |  |  | CCn1cc(C(=O)NCCc2ccncc2)c(=O)c2cc3c(cc21)OCO3 | 
10 | < 1 | 1200 |  |  | 11 |  | CCn1cc(C(=O)NCCc2ccncc2)c(=O)c2cnc(N3CCCC3)nc21 | 
11 | < 0.46 | 460 |  |  | 15 |  | CCn1cc(C(=O)NCCc2ccncc2)c(=S)c2cc(C(F)(F)F)ccc21 | 
